Laboratory results reported in patent US12186312B2, “Sleep improving agent” (Amino Up Co., Ltd., priority 2016, dated 2025).

Tests used:
[1] = test system: HSP70 mRNA expression in human promyelocytic leukemia cells (HL-60 cells); test: Evaluation of HSP70 mRNA expression-inducing activity in HL-60 cells; type: cell-based; conditions: for concentration at which HSP70 mRNA expression inducing ability was increased up to 150% relative to the control: 4 hours at 37° C., corrected with beta 2 microglobulin gene; for HSP70 mRNA expression as compared with the control: 4 hours, FIGS. 1-3, percentages for the control
Method: The HSP70 expression-inducing activity by Compounds 1-3 was evaluated by measuring a HSP70 mRNA expression level.
Human promyelocytic leukemia cells (HL-60 cells) was suspended in RPMI 1640 medium supplemented with 10% fetal bovine serum, and was transferred into a 1.5 mL tube (45,000 cells/0.9 mL). To the tube was added 0.1 mL of each sample that had been prepared in a 1% DMSO solution and the tube was allowed to stand at 37° C. for 4 hours. To a control was added 0.1 mL of 1% DMSO solution. After cultured for 4 hours, the cells was centrifuged by a small refrigerated centrifuge (1,000 g×5 minutes) to precipitate the HL-60 cells. After removal of the supernatant, the cells were lysed in 0.25 mL Trizol (manufactured by Thermo Fisher Scientific) and then total RNA was extracted according to the protocol. The RNA was dissolved in RNase-free water, and the concentration of the RNA (wave length 260 nm) was measured by using a microvolume spectrophotometer NanoDrop 2000/2000c (manufactured by Thermo Fisher Scientific). The RNA solution was diluted with RNase-free water so as to have a concentration of 50 ng/mL, and then cDNA was synthesized by using ReverTra Ace® qPCR RT Kit (manufactured by TOYOBO). The reaction liquid (10 μl) after the reverse transcription was diluted with RNase-free water so as to be 100 μL, and then used as a template for PCR. Beta 2 microglobulin gene was used as an internal control gene for correction of the HSP70 gene expression. The primer sequences of genes used for the PCR reaction are as follows.
The expression was analyzed by using CFX Connect Real-Time PCR Detection System (manufactured by Bio-rad). 10 μL of the PCR reaction liquid was incubated at 95° C. for 3 minutes (initial denaturation), followed by repetition of 55 cycles comprising denaturation at 95° C. for 10 seconds, and annealing and extension at 57.8° C. for 30 seconds. Finally, the melting curve was measured every 0.2° C. in the range from 65° C. to 95° C. Expression levels of HSP70 gene and internal standard gene were analyzed using Bio-Rad CFX Manager 3.1.

[2] = test system: male Wistar rats; test: Light period activity level after 8-hour phase advance (model of mild sleep disorder), dietary administration; type: in vivo, rat; conditions: for activity level of Day 1 and Day 2 during the light period compared with the Control group: Dunnett test with mixed model for repeated measures; for activity level on Day 1, light period (12 hours) after the phase advance compared with the Control group: Dunnett test
Excerpt: Firstly, 7-week old male Wistar rats were implanted intraperitoneally with a small activity meter (NanoTag®, Kissei Comtech Co., Ltd.). Subsequently, after a week of recovery period, the rats were divided into four groups (Control group, Compound A-1 group, Compound A-2 group, and Compound A-3 group; n=17 each) shown in Table 1 by stratified randomization assignment using body weight as an index, and test diets were dietary administered to them. At the 15th day from the start of dietary administration, the light/dark cycle was advanced by 8 hours, and after that, dietary administration of test diets was continued for 2 weeks. The light/dark cycle of the breeding environment excluding the phase advance date was set to 12 hours cycle, and the illuminance of the light period was set to be approximately 200 1× (185-230 1×). In this model of mild sleep disorder with the phase advance, the influence of test feed administration on the light period activity level after the phase advance was examined.
The test was carried out by a two-sided test, the significance level of the test was set to 5%, and the trend difference was 10% on both sides. For the analysis, SAS software release 9.3 (manufactured by SAS Institute Japan Ltd.) was used.

Row | SMILES | concentration at which HSP70 mRNA expression inducing ability was increased up to 150% relative to the control [1] [mg/mL] | HSP70 mRNA expression as compared with the control [1] | activity level of Day 1 and Day 2 during the light period compared with the Control group ([2]; Compound A-2 group: MF containing 0.005% of Compound A (6.25 mg/kg BW/day), P=0.0481) | activity level on Day 1, light period (12 hours) after the phase advance compared with the Control group ([2]; Compound A-2 group: MF containing 0.005% of Compound A (6.25 mg/kg BW/day), P=0.016) | activity level of Day 1 and Day 2 during the light period compared with the Control group ([2]; Compound A-3 group: MF containing 0.05% of Compound A (62.46 mg/kg BW/day), P=0.0978) | activity level on Day 1, light period (12 hours) after the phase advance compared with the Control group ([2]; Compound A-3 group: MF containing 0.05% of Compound A (62.46 mg/kg BW/day), P=0.0536)
1 | O=C1N[C@@H](Cc2ccc(O)cc2)C(=O)N2CCC[C@@H]12 [Compound 3, (3S,8aS)-3-(4-hydroxybenzyl)hexahydropyrrolo[1,2-a]pyrazine-1,4-dione] | 0.101 | enhanced mRNA expression of HSP70 gene | – | – | – | –
2 | O=C1N[C@@H](Cc2ccccc2)C(=O)N2CCC[C@@H]12 [Compound 2, (3S,8aS)-3-benzylhexahydropyrrolo[1,2-a]pyrazine-1,4-dione] | 0.045 | enhanced mRNA expression of HSP70 gene | – | – | – | –
3 | CC(C)C[C@@H]1NC(=O)[C@@H]2CCCN2C1=O [Compound 1, (3S,8aS)-3-isobutylhexahydropyrrolo[1,2-a]pyrazine-1,4-dione] | 0.083 | enhanced mRNA expression of HSP70 gene | significantly inhibited the activity level | significantly suppressed the activity level | tendency to suppress the activity level | tended to suppress the activity level
